Here are results for one compound from patent publication US6593335B1, “Potassium channel openers” (Abbott Laboratories, priority 1997, dated 2003).

One assay has as its target potassium channels (Sus scrofa, UniProt F1SR11). Nature of the assay: Functional potassium channel opening activity in isolated Landrace pig bladder strips (field-stimulated twitch). In short, it runs like this:
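Landrace pig bladder strips with the mucosa removed were field-stimulated (0.05 Hz, 0.5 ms, 20 V) in Krebs Ringer bicarbonate containing propranolol, and primed with 80 mM KCl. Cumulative concentration-response curves gave maximal efficacy relative to a reference potassium channel opener, pD2, and a potency index (reference ED50/test ED50) averaged across tissues.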

In the next assay the test system is Male CD rats. Nature of the assay: In-vivo bladder efficacy protocol (isovolumetric contractions model). Also on record: species or system rat. The source says:
The utility of compounds of the inyention for the treatment of urinary incontinence, bladder overactivity and bladder instability is illustrated by the ability of compounds of the inyention to affect bladder contractions in-vivo. The following method is illustrative of the in-vivo bladder efficacy of compounds of the inyention. In-vivo bladder efficacy protocol (isovolumetric contractions model) Male CD rats (400-450 g) were anesthetized with urethane (0.6 gikg ip +0.6 g/kg sc). The left femoral vein was cannulated with polyethylene (PE-50) tubing for test compound administration. […] The bladder was emptied via this catheter and additionally by applying slight manual pressure on the lower abdomen. The urinary catheter was connected using a Y-tube connector to both a pressure transducer and a syringe pump. The urethra was then ligated using 4-0 silk suture and the bladder was slowly filled using a constant infusion of room temperature saline at the rate of 0.1 ml/min until spontaneous rhythmic contractions were evident (1.0 -1.3 ml). […] Then three doses of a test compound were administered cumulatively iv at 20 minute intervals. […] Area under the curve (AUC) of the bladder contractions was determined from the respective waveforms using a Modular Instruments, Inc. computerized data acquisition system and averaged over the last ten minutes of each twenty minute period.

On to `O=C1CCC2=C1C(c1ccc(F)c(Br)c1)C1=C(CCS1(=O)=O)N2` (single isomer, unassigned; (+)) [Example 87], for which the “Landrace Pig Bladder Index” value at potassium channels (ED50 for P1075 divided by ED50 for the test agonist, averaged over tissues) was determined as 0.90. Besides, at potassium channels (maximal efficacy relative to P1075, field stimulation 0.05Hz, 0.5 milli-seconds at 20 volts), the “Landrace Pig Bladder Efficacy (% P1075)” value is on record as 100 % P1075. In addition, the “Landrace Pig Bladder pD2” value on potassium channels (negative logarithm of ED50) is on record as 7.5. The “reduction in bladder AUC” value with Male CD rats (iv, dose range of 0.01, 0.1) is given as “dose dependent reduction in bladder AUC”. In the assay on Male CD rats (urethane-anesthetized male CD rats, iv cumulative dosing), this compound yielded an AUC ED30 (dose required to reduce the area under the curve of the bladder contractions by 30% relative to control) of 0.06 µmol/kg.
